From US11096923B2, “Pharmaceutical composition containing polymyxin B/trimethoprim based therapeutics” (University of Rochester, priority 2016, dated 2021)
Read-outs that look alike come from different tables or passages of the source.

How the values were obtained:
[1] = test system: S. aureus UAMS-1 biofilms; assay: Biofilm susceptibility; format: cell-based, Staphylococcus aureus; conditions: established S. aureus biofilm, 24 hrs treatment, 32×MIC
Text: Bacterial strains used in these studies include the conventional laboratory strains Pseudomonas aeruginosa PA01 and Staphylococcus aureus UAMS-1, both of which are antibiotic susceptible and capable of forming robust biofilms. See […], Thomas J R, Nelson […]. Role of the accessory gene regulator (agr) in pathogenesis of staphylococcal osteomyelitis. Infection and immunity 1995; 63:3373-3380. Seven clinical keratitis isolates of Pseudomonas aeruginosa, were collected from the Flaum Eye Institute, Rochester N.Y. and 25 clinical isolates of Staphylococcus aureus from geographically distinct regions of the country where purchased from International Health Management Associates (IHMA; Schaumburg, Ill.). For experiments requiring planktonic cultures, the indicated organism was grown overnight in Luria-Bertani broth (LB; […] Biofilms were established by inoculating individual wells of flat-bottom polystyrene plates (Falcon, Corning Life Sciences; Durham, N.C.) with overnight cultures of the indicated organism into 200 ul of fresh LB to a final concentration of 1×10^7 CFU ml^-1. Plates were placed in a 37° C.-humidified incubator for 72 hours to allow static biofilm formation. Non-adherent cells were aspirated and biofilms were washed twice with phosphate-buffered saline prior to each experiment. […] After 24 hrs the remaining media and non-adherent cells were removed, biofilms were suspended in 0.8% NaCl and plated to quantify surviving bacteria. […] Biofilms were treated in increasing increments ranging from 0 to 64×MIC.

[2] = test system: planktonic P. aeruginosa cells; assay: Antimicrobial kill curves; format: cell-based, Pseudomonas aeruginosa; conditions: 2× MIC, 4 hours post-treatment
Procedure: Overnight cultures of the indicated organism were used to inoculate (1:100 dilution) 100 ml of fresh media and grown to mid-exponential phase. […] Aliquots were taken at 1, 2, 3, 4, and 24 hours, serial diluted and plated for colony forming units.

[3] = test system: P. aeruginosa; assay: MIC of clinical P. aeruginosa ocular isolates (antibiotic susceptibility profiles); format: cell-based, Pseudomonas aeruginosa; conditions: Pseudomonas aeruginosa, read-out: Minimum Inhibitory Concentration
Text: A series of genotyping and biological assays were used as a preliminary means to evaluate the clonality of clinical P. aeruginosa isolates collected, as follows. Genomic DNA was purified from each isolate using Qiagen DNeasy kits (Hilden, Germany) and used as a template for polymerase chain reactions to detect the presence of the virulence factors exoS, exoY, exoU, exoT, and perV using previously published primers (Table 1). See Allewelt M, Coleman F T, Grout M, Priebe G P, Pier G B. Acquisition of expression of the Pseudomonas aeruginosa ExoU cytotoxin leads to increased bacterial virulence in a murine model of acute pneumonia and systemic spread. Infection and immunity 2000; 68:3998-4004, Lomholt J A, Poulsen K, Kilian M. Epidemic population structure of Pseudomonas aeruginosa: evidence for a clone that is pathogenic to the eye and that has a distinct combination of virulence factors. Infection and immunity 2001; 69, and Ledbetter E C, Mun J J, Kowbel D, Fleiszig S M. Pathogenic phenotype and genotype of Pseudomonas aeruginosa isolates from spontaneous canine ocular infections. Investigative ophthalmology & visual science 2009; 50. […] See Institute C. Performance Standards for Antimicrobial Susceptibility Testing: Twenty-fifth Informational Supplement. Each isolate's ability to form biofilms was quantified. To do so, wells of a polystyrene plate containing 72-hour established biofilms were washed with 0.8% NaCl to remove non adherent cells and stained with crystal violet. To quantify biofilm staining, plates were washed 3 times with H2O, stain was suspended in 30% glacial acetic acid and the optical density (OD600nm) of each well was determined using an automated plate reader, as previously described. See Jacobs A C, Blanchard C E, Catherman S C, Dunman P M, Murata Y. An ribonuclease T2 family protein modulates Acinetobacter baumannii abiotic surface colonization. PloS one 2014; 9.

[4] = test system: P. aeruginosa strain PA01; format: cell-based, Pseudomonas aeruginosa
Procedure: (§1) Spontaneous resistance to the indicated test agent(s) was measured for P. aeruginosa strain PA01 and S. aureus strain UAMS-1 using two liquid culture approaches. […] Growth was measured using the BacterioScan s216Dx laser microbial growth monitor, with optical measurements taken every 3 minutes over 40 hours. Following 40 hours, samples were plated for to measure viable colony forming units and re-tested for drug susceptibility.
(§2) To determine if these colonies represented untreated cells vs. resistant cells, 8 individual colonies from each treatment condition were randomly selected and tested for MICs.
(§3) Using an automated laser microbial growth monitor, the optical profiles of these cultures were measured continuously over time. […] Again 8 colonies were selected at random from each treatment group.

[5] = test system: S. aureus strain UAMS-1; format: cell-based, Staphylococcus aureus; conditions: 1×MIC, laser microbial growth monitor over 40 hours
Procedure: as §1, §2, §3

[6] = test system: MRSA keratitis isolates; conditions: MRSA keratitis isolates collected between 1993 and 2012; cited from earlier work

Row | SMILES | reduction in biofilm-associated CFU [1] [log] | reduction in CFU at hour 4 [2] [log] | MIC ([3]; P. aeruginosa ocular isolate RW01 (cornea)) [µg/mL] | MIC ([3]; P. aeruginosa ocular isolate RW02 (cornea)) [µg/mL] | MIC ([3]; P. aeruginosa ocular isolate RW03 (cornea)) [µg/mL] | MIC ([3]; P. aeruginosa ocular isolate RW04 (conjunctiva)) [µg/mL] | MIC ([3]; P. aeruginosa ocular isolate RW05 (cornea)) [µg/mL] | MIC ([3]; P. aeruginosa ocular isolate RW06 (cornea)) [µg/mL] | MIC ([3]; P. aeruginosa ocular isolate RW07 (cornea)) [µg/mL] | resistance of recovered cells on MIC retest [4] [×MIC] | time until growth of treated culture ([4]; P. aeruginosa, 1×MIC, laser microbial growth monitor over 40 hours) | start of outgrowth of treated culture [5] [h] | isolates displaying resistance [6] [%]
1 | COc1c(N2C[C@@H]3CCCN[C@@H]3C2)c(F)cc2c(=O)c(C(=O)O)cn(C3CC3)c12 [Moxifloxacin, moxifloxacin] | 4 | 5 | 0.25 | 0.25 | 0.25 | 0.25 | 0.125 | 0.5 | 0.125 | 2 | approximately 22 hours | 26 | –
2 | COc1cc(Cc2cnc(N)nc2N)cc(OC)c1OC [trimethoprim] | – | – | – | – | – | – | – | – | – | – | – | – | 11.5
